9 compounds from US20100035756A1, “TRIAZOLOPHYRIDINE DERIVATIVES AS HERBICIDES” (SYNGENTA LIMITED, priority 2006, published 2010) can be followed below.

Experiment [1] relates to Monocotyledonous and dicotyledonous test plants. Nature of the experiment: Herbicidal action prior to emergence of the plants (pre-emergence action), Example B1. It counts as in vivo. Conditions: preemergence application, 250 g/ha, evaluated after 4 weeks, 100%=total damage, 0%=no damage. How it is done: (§1) Monocotyledonous and dicotyledonous test plants are sown in seed trays in standard soil. Immediately after sowing, the test compounds are applied by spraying in the form of an aqueous suspension (prepared from a wettable powder (Example F3, b) according to WO 97/34485) or in the form of an emulsion (prepared from an emulsifiable concentrate (Example F1, c) according to WO 97/34485) in a concentration of 250 g/ha. The test plants are then grown in a greenhouse under optimum conditions. After a 4-week test period, the test is evaluated (100%=total damage to plant; 0%=no damage to plant; NC not evaluated).

The test system is the same in experiment [2]. The experiment can be described thus: Herbicidal action after emergence of the plants (post-emergence herbicidal action), Example B2. It counts as in vivo. The following applies: postemergent application, 125 g/ha, 2- to 3-leaf stage, evaluated after 2-3 weeks, 100%=total damage. How it is done:
as §1, with “When the test plants are at the 2- to 3-leaf stage,” for “Immediately after sowing,”, “125” for “250”, “grown on” for “grown”, “2- to 3-week” for “4-week”, “plant).” for “plant; NC not evaluated).”

“And” between values parts separate entries of the source, which are not always exact repeats. Equal values may be shown once.

Regarding `COCc1nnc2c(C(=O)C3=C(O)C4CCC(C4)C3=O)ccc(C(F)(F)F)n12` (centres unmarked) [Compound 1.16], in experiment [1], the “herbicidal damage, ABUTH” value is recorded as 100%; the “herbicidal damage, AMARE” value is recorded as 100%; the “herbicidal damage, BRAPL” value is recorded as 70%; the “herbicidal damage, DIGSA” value was found to be 80%. Further, in experiment [1], the “herbicidal damage, ECHCG” value turned out to be 100%; the “herbicidal damage, SETFA” value was determined as 80%; the “herbicidal damage, STEME” value is 100%; the “herbicidal damage, VERPE” value is reported as 50%. Also, in experiment [2], the “herbicidal damage, ABUTH” value worked out at 80%; the “herbicidal damage, AMARE” value is recorded as 90%; the “herbicidal damage, CHEAL” value is 80%; the “herbicidal damage, DIGSA” value is listed as 70%. In addition, in experiment [2], the “herbicidal damage, SETFA” value came to 70%; the “herbicidal damage, SINAR” value is 80%; the “herbicidal damage, VERPE” value is 80%; the “herbicidal damage, XANST” value is given as 80%.

As for `Cc1nnc2c(C(=O)C3=C(O)C4CCC(C4)C3=O)ccc(C(F)F)n12` (centres unmarked) [Compound 1.54], in experiment [1], the “herbicidal damage, ABUTH” value worked out at 20%; the “herbicidal damage, AMARE” value was 10%; the “herbicidal damage, BRAPL” value is 40%; the “herbicidal damage, DIGSA” value came out at 0%. Besides, in experiment [1], the “herbicidal damage, ECHCG” value came out at 0%; the “herbicidal damage, SETFA” value is listed as 0%; the “herbicidal damage, STEME” value is on record as 0%; the “herbicidal damage, VERPE” value was 20%. Besides, in experiment [2], the “herbicidal damage, ABUTH” value stood at 70%; the “herbicidal damage, AMARE” value was found to be 80%; the “herbicidal damage, CHEAL” value is listed as 70%; the “herbicidal damage, DIGSA” value is listed as 60%. In experiment [2], the “herbicidal damage, SETFA” value is reported as 50%; the “herbicidal damage, SINAR” value is given as 60%; the “herbicidal damage, VERPE” value was found to be 60%; the “herbicidal damage, XANST” value was 70%.

`CCOc1nnc2c(C(=O)C3=C(O)C4CCC(C4)C3=O)ccc(C(F)(F)F)n12` (centres unmarked) [Compound 1.211]: in experiment [1], the “herbicidal damage, ABUTH” value was determined as 30%; the “herbicidal damage, AMARE” value is 100%; the “herbicidal damage, BRAPL” value is reported as 100%; the “herbicidal damage, DIGSA” value came out at 70%. In experiment [1], the “herbicidal damage, ECHCG” value came out at 70%; the “herbicidal damage, SETFA” value is reported as 30%; the “herbicidal damage, STEME” value came to 80%; the “herbicidal damage, VERPE” value stood at 90%. In addition, in experiment [2], the “herbicidal damage, ABUTH” value is on record as 70%; the “herbicidal damage, AMARE” value was found to be 100%; the “herbicidal damage, CHEAL” value amounted to 80%; the “herbicidal damage, DIGSA” value was 70%. In experiment [2], the “herbicidal damage, SETFA” value came to 80%; the “herbicidal damage, SINAR” value is listed as 80%; the “herbicidal damage, VERPE” value is 80%; the “herbicidal damage, XANST” value was 80%.

`CCSc1nnc2c(C(=O)C3=C(O)C4CCC(C4)C3=O)ccc(C(F)(F)F)n12` (centres unmarked) [Compound 1.212]: in experiment [1], the “herbicidal damage, ABUTH” value is given as 70%; the “herbicidal damage, AMARE” value amounted to 100%; the “herbicidal damage, BRAPL” value is reported as 60%; the “herbicidal damage, DIGSA” value was found to be 70%. Further, in experiment [1], the “herbicidal damage, ECHCG” value is listed as 50%; the “herbicidal damage, SETFA” value worked out at 80%; the “herbicidal damage, STEME” value was found to be 70%; the “herbicidal damage, VERPE” value is reported as 0%. Besides, in experiment [2], the “herbicidal damage, ABUTH” value came to 80%; the “herbicidal damage, AMARE” value was 80%; the “herbicidal damage, CHEAL” value is given as 80%; the “herbicidal damage, DIGSA” value is recorded as 80%. For the same compound, in experiment [2], the “herbicidal damage, SETFA” value stood at 80%; the “herbicidal damage, SINAR” value was 80%; the “herbicidal damage, VERPE” value is recorded as 80%; the “herbicidal damage, XANST” value was 80%.

Take `O=C1CCCC(O)=C1C(=O)c1ccc(C(F)(F)F)n2c(Br)nnc12` [Compound 3.3]: in experiment [1], the “herbicidal damage, ABUTH” value was 100%; the “herbicidal damage, AMARE” value is recorded as 100%; the “herbicidal damage, BRAPL” value is listed as 0%; the “herbicidal damage, DIGSA” value was determined as 0%. Moreover, in experiment [1], the “herbicidal damage, ECHCG” value amounted to 0%; the “herbicidal damage, SETFA” value stood at 0%; the “herbicidal damage, STEME” value is reported as 70%; the “herbicidal damage, VERPE” value turned out to be 30%. For the same compound, in experiment [2], the “herbicidal damage, ABUTH” value is recorded as 70%; the “herbicidal damage, AMARE” value was 70%; the “herbicidal damage, CHEAL” value worked out at 80%; the “herbicidal damage, DIGSA” value is recorded as 70%. For the same compound, in experiment [2], the “herbicidal damage, SETFA” value is reported as 30%; the “herbicidal damage, SINAR” value is given as 70%; the “herbicidal damage, VERPE” value was 80%; the “herbicidal damage, XANST” value stood at 80%.

As for `CCc1nnc2c(C(=O)C3=C(O)CCCC3=O)ccc(C(F)(F)F)n12` [Compound 3.5], in experiment [1], the “herbicidal damage, ABUTH” value is on record as 100%; the “herbicidal damage, AMARE” value is given as 70%; the “herbicidal damage, BRAPL” value came to 80%; the “herbicidal damage, DIGSA” value was 90%. In addition, in experiment [1], the “herbicidal damage, ECHCG” value was determined as 70%; the “herbicidal damage, SETFA” value turned out to be 90%; the “herbicidal damage, STEME” value is given as 60%; the “herbicidal damage, VERPE” value was determined as 30%. Moreover, in experiment [2], the “herbicidal damage, ABUTH” value is on record as 90%; the “herbicidal damage, AMARE” value is reported as 100%; the “herbicidal damage, CHEAL” value amounted to 90%; the “herbicidal damage, DIGSA” value amounted to 80%. Moreover, in experiment [2], the “herbicidal damage, SETFA” value was determined as 70%; the “herbicidal damage, SINAR” value was found to be 80%; the “herbicidal damage, VERPE” value was 90%; the “herbicidal damage, XANST” value came to 80%.

As to `CC(C)c1nnc2c(C(=O)C3=C(O)CCCC3=O)ccc(C(F)(F)F)n12` [Compound 3.6], in experiment [1], the “herbicidal damage, ABUTH” value amounted to 90%; the “herbicidal damage, AMARE” value is 70%; the “herbicidal damage, BRAPL” value is 60%; the “herbicidal damage, DIGSA” value is 90%. Also, in experiment [1], the “herbicidal damage, ECHCG” value came out at 90%; the “herbicidal damage, SETFA” value is 50%; the “herbicidal damage, STEME” value is given as 20%; the “herbicidal damage, VERPE” value was found to be 20%. Moreover, in experiment [2], the “herbicidal damage, ABUTH” value is listed as 80%; the “herbicidal damage, AMARE” value was 70%; the “herbicidal damage, CHEAL” value was 90%; the “herbicidal damage, DIGSA” value was 70%. In experiment [2], the “herbicidal damage, SETFA” value worked out at 70%; the “herbicidal damage, SINAR” value turned out to be 90%; the “herbicidal damage, VERPE” value amounted to 100%; the “herbicidal damage, XANST” value stood at 90%.

As for `O=C1CCCC(O)=C1C(=O)c1ccc(C(F)(F)F)n2c(C3CC3)nnc12` [Compound 3.7], in experiment [1], the “herbicidal damage, ABUTH” value is recorded as 30%; the “herbicidal damage, AMARE” value is listed as 30%; the “herbicidal damage, BRAPL” value was determined as 30%; the “herbicidal damage, DIGSA” value is 30%. Besides, in experiment [1], the “herbicidal damage, ECHCG” value was 10%; the “herbicidal damage, SETFA” value is on record as 10%; the “herbicidal damage, STEME” value turned out to be 20%; the “herbicidal damage, VERPE” value is 10%. Further, in experiment [2], the “herbicidal damage, ABUTH” value turned out to be 80%; the “herbicidal damage, AMARE” value is recorded as 90%; the “herbicidal damage, CHEAL” value is 70%; the “herbicidal damage, DIGSA” value came out at 80%. In addition, in experiment [2], the “herbicidal damage, SETFA” value was 80%; the “herbicidal damage, SINAR” value is recorded as 90%; the “herbicidal damage, VERPE” value is recorded as 80%; the “herbicidal damage, XANST” value is 80%.

`CC(C)c1nnc2c(C(=O)C3=C(O)C(C)(C)C(=O)C(C)(C)C3=O)ccc(C(F)(F)F)n12` [Compound 5.4]: in experiment [1], the “herbicidal damage, ABUTH” value worked out at 100%; the “herbicidal damage, AMARE” value amounted to 100%; the “herbicidal damage, BRAPL” value was 100%; the “herbicidal damage, DIGSA” value came to 60%. For the same compound, in experiment [1], the “herbicidal damage, ECHCG” value is on record as 40%; the “herbicidal damage, SETFA” value turned out to be 30%; the “herbicidal damage, STEME” value was 100%; the “herbicidal damage, VERPE” value is 100%. Further, in experiment [2], the “herbicidal damage, ABUTH” value is reported as 80%; the “herbicidal damage, AMARE” value was 90% and 70%; the “herbicidal damage, CHEAL” value was 80%; the “herbicidal damage, SETFA” value was 50%. In addition, in experiment [2], the “herbicidal damage, SINAR” value is 70% and 80%; the “herbicidal damage, VERPE” value was 80% and 90%; the “herbicidal damage, XANST” value is 70% and 90%.
